≈ marks a conversion by molar mass, not a printed value. Calls of active or inactive are those of the source. No cut-off for these calls is given here.
How the values were obtained:
Cryptococcus neoformans [1] = assay: Antifungal activity against wild type Cryptococcus neoformans H99 assessed as inhibition of fungal growth incubated for 24 to 72 hrs by optical density based analysis; assay type: functional; conditions: time 24-72 hrs
Cryptococcus neoformans [2] = assay: Fungicidal activity against wild type Cryptococcus neoformans H99 assessed as minimum concentration required to kill fungus measured after 96 hrs by time-kill assay; assay type: functional
[3] = Cytotoxicity against human A549 cells assessed as cell killing measured after 24 to 48 hrs by MTT assay; assay type: toxicity, cell-based; conditions: time 24-48 hrs, read-out: LD50 (the source's name)
[4] = Selectivity index, ratio of LD50 for human A549 cells to MIC80 for Cryptococcus neoformans H99; assay type: toxicity; conditions: read-out: Selectivity Index
Cryptococcus neoformans [5] = assay: Fungicidal activity against wild type Cryptococcus neoformans H99 assessed as minimum concentration required to kill fungus measured after 24 hrs by time-kill assay; assay type: functional
Candida albicans = assay: Antifungal activity against Candida albicans assessed as inhibition of fungal growth incubated for 24 to 72 hrs by optical density based analysis; assay type: functional; conditions: time 24-72 hrs
Aspergillus fumigatus = assay: Antifungal activity against Aspergillus fumigatus assessed as inhibition of fungal growth incubated for 24 to 72 hrs by optical density based analysis; assay type: functional; conditions: time 24-72 hrs
Cryptococcus neoformans [6] = assay: Antifungal activity against wild type Cryptococcus neoformans H99 assessed as inhibition of fungal growth in presence of fluconazole; assay type: functional
Cryptococcus neoformans [7] = assay: Antifungal activity against wild type Cryptococcus neoformans H99 assessed as inhibition of fungal growth in presence of caspofungin; assay type: functional
Cryptococcus neoformans [8] = assay: Antifungal activity against wild type Cryptococcus neoformans H99 assessed as inhibition of fungal growth in presence of amphotericin B; assay type: functional
Cryptococcus neoformans [9] = assay: Synergistic antifungal activity against wild type Cryptococcus neoformans H99 assessed as fractional inhibitory concentration index in presence of fluconazole; assay type: functional
Cryptococcus neoformans [10] = assay: Synergistic antifungal activity against wild type Cryptococcus neoformans H99 assessed as fractional inhibitory concentration index in presence of caspofungin; assay type: functional
Cryptococcus neoformans [11] = assay: Antifungal activity against wild type Cryptococcus neoformans H99 assessed as fractional inhibitory concentration index in presence of amphotericin B; assay type: functional
Cryptococcus neoformans [12] = assay: Antagonistic antifungal activity against wild type Cryptococcus neoformans H99 in presence of fluconazole; assay type: functional, organism-based
Cryptococcus neoformans [13] = assay: Antagonistic antifungal activity against wild type Cryptococcus neoformans H99 in presence of caspofungin; assay type: functional, organism-based
Cryptococcus neoformans [14] = assay: Antagonistic antifungal activity against wild type Cryptococcus neoformans H99 in presence of amphotericin B; assay type: functional, organism-based
Cryptococcus neoformans [15] = assay: Synergistic antifungal activity against wild type Cryptococcus neoformans H99 assessed as fractional inhibitory concentration index in presence of amphotericin B; assay type: functional
Cryptococcus neoformans [16] = assay: Fungicidal activity against wild type Cryptococcus neoformans H99 assessed as minimum concentration required to kill fungus measured after 72 hrs by time-kill assay; assay type: functional
Cryptococcus neoformans [17] = assay: Fungicidal activity against wild type Cryptococcus neoformans H99 assessed as minimum concentration required to kill fungus measured after 48 hrs by time-kill assay; assay type: functional
Cryptococcus neoformans [18] = assay: Antifungal activity against wild type Cryptococcus neoformans H99 assessed as fractional inhibitory concentration index in presence of fluconazole; assay type: functional

Row | SMILES | MIC80 (Cryptococcus neoformans [1]) [µg/mL] | MFC100 (Cryptococcus neoformans [2]) [µg/mL] | CC50 [3] [µg/mL] | selectivity ratio [4] | MFC100 (Cryptococcus neoformans [5]) [µg/mL] | MIC80 (Candida albicans) [µg/mL] | MIC80 (Aspergillus fumigatus) [µg/mL] | MIC80 (Cryptococcus neoformans [6]) [µg/mL] | MIC80 (Cryptococcus neoformans [7]) [µg/mL] | MIC80 (Cryptococcus neoformans [8]) [µg/mL] | fractional inhibitory concentration index (FICI) (Cryptococcus neoformans [9]) | fractional inhibitory concentration index (FICI) (Cryptococcus neoformans [10]) | fractional inhibitory concentration index (FICI) (Cryptococcus neoformans [11]) | Activity (Cryptococcus neoformans [12]) | Activity (Cryptococcus neoformans [13]) | Activity (Cryptococcus neoformans [14]) | fractional inhibitory concentration index (FICI) (Cryptococcus neoformans [15]) | MFC100 (Cryptococcus neoformans [16]) [µg/mL] | MFC100 (Cryptococcus neoformans [17]) [µg/mL] | fractional inhibitory concentration index (FICI) (Cryptococcus neoformans [18])
1 | O=C(N/N=C/c1ccc(Br)cc1O)c1cc(Br)co1 | 0.5 (≈ 1.29 µM) | 2 (≈ 5.15 µM) | 16 (≈ 41.2 µM) | 32 | – | – | – | – | – | – | – | – | – | – | – | – | – | – | – | –
2 | O=C(N/N=C/c1cc(Br)ccc1O)c1ccc(Br)o1 | 0.12 (≈ 0.309 µM) | – | > 32 | > 533 | 0.25 (≈ 0.644 µM) | 1 (≈ 2.58 µM) | 0.25 (≈ 0.644 µM) | 0.06 | 0.06 | 0.015 | 0.56 | 0.75 | 1.12 | inactive | inactive | inactive | – | – | – | –
3 | O=C(N/N=C/c1ccc(Br)cc1O)c1cc(Br)c(Br)s1 | 0.002 (≈ 0.00414 µM) | – | > 32 | > 533 | 0.5 (≈ 1.04 µM) | 0.125 (≈ 0.259 µM) | 0.06 (≈ 0.124 µM) | 0.001 | 0.001 | 0.001 | 0.6 | 0.78 | – | inactive | inactive | inactive | 0.78 | – | – | –
4 | O=C(N/N=C/c1ccc(Br)cc1O)c1ccc(C(F)(F)F)o1 | 1 (≈ 2.65 µM) | – | 4 (≈ 10.6 µM) | 4 | – | – | – | – | – | – | – | – | – | – | – | – | – | 4 (≈ 10.6 µM) | – | –
5 | O=C(N/N=C/c1cc(Br)ccc1O)c1csc(Br)c1 | 0.014 (≈ 0.0346 µM) | – | > 32 | > 1070 | – | 0.125 (≈ 0.309 µM) | 1 (≈ 2.47 µM) | 0.002 | 0.015 | 0.001 | – | 0.14 | – | inactive | inactive | inactive | 0.53 | – | 0.06 (≈ 0.148 µM) | 1.1
